Earlier results in patent USRE37727E1, “Method for treating nerve injury pain associated with shingles” (priority 1989, dated 2002).

Details: venous; reported range

CCN(CC)CC(=O)Nc1c(C)cccc1C [lidocaine]
minimum concentrations of lidocaine for anti-arrhythmic effects: 0.6 to 2.0 µg/mL
